Results: ChEMBL document CHEMBL5329194, “Design, Synthesis, and Evaluation of 18F-Labeling CYP1B1 PET Tracer Based on 2-Phenylquinazolin” (Bioorg Med Chem Lett, 2023)

Assays:
Format in all cases: ADME
Cytochrome P450 1A1 = biological target: T1, Cytochrome P450 1A1 (Homo sapiens, UniProt P04798); assay: Inhibition of CYP1A1 (unknown origin)
T1 sequence (P04798 whole entry): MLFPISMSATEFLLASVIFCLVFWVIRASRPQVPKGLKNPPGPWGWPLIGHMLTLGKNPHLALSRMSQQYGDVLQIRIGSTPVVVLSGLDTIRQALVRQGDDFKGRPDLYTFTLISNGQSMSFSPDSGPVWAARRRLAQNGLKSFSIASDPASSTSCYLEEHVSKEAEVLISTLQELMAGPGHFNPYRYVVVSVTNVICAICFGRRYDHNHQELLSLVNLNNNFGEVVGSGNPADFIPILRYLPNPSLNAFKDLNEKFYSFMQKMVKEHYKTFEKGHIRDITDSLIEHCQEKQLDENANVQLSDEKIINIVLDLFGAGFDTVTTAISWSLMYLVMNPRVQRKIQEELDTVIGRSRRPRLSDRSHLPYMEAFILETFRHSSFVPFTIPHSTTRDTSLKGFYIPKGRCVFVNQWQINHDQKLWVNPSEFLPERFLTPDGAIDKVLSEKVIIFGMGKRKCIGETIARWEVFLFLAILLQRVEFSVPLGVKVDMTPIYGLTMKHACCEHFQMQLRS

Cytochrome P450 1A2 = biological target: T2, Cytochrome P450 1A2 (Homo sapiens, UniProt P05177); assay: Inhibition of CYP1A2 (unknown origin)
T2 sequence (P05177 whole entry): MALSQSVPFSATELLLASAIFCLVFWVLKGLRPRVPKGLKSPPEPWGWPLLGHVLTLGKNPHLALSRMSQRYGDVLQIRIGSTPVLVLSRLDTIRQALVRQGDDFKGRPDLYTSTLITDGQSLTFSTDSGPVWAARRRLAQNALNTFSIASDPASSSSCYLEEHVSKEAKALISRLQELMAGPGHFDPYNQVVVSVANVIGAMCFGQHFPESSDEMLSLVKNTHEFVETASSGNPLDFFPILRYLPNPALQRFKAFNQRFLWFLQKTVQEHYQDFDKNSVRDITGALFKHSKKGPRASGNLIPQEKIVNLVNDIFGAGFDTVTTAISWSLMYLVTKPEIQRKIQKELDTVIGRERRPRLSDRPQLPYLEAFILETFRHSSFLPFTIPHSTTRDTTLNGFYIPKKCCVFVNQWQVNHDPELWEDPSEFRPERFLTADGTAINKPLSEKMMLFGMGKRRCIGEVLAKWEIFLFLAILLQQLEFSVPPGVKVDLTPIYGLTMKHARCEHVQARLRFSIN

CYP1A2 versus CYP1B1 = assay: Selectivity ratio of IC50 for inhibition of CYP1A2 (unknown origin) to IC50 for inhibition of CYP1B1 (unknown origin); conditions: human; read-out: Ratio IC50
CYP1A1 versus CYP1B1 = assay: Selectivity ratio of IC50 for inhibition of CYP1A1 (unknown origin) to IC50 for inhibition of CYP1B1 (unknown origin); conditions: human; read-out: Ratio IC50
Cytochrome P450 1B1 = biological target: T3, Cytochrome P450 1B1 (Homo sapiens, UniProt Q16678); assay: Inhibition of CYP1B1 (unknown origin) by EROD assay
T3 sequence (Q16678 whole entry): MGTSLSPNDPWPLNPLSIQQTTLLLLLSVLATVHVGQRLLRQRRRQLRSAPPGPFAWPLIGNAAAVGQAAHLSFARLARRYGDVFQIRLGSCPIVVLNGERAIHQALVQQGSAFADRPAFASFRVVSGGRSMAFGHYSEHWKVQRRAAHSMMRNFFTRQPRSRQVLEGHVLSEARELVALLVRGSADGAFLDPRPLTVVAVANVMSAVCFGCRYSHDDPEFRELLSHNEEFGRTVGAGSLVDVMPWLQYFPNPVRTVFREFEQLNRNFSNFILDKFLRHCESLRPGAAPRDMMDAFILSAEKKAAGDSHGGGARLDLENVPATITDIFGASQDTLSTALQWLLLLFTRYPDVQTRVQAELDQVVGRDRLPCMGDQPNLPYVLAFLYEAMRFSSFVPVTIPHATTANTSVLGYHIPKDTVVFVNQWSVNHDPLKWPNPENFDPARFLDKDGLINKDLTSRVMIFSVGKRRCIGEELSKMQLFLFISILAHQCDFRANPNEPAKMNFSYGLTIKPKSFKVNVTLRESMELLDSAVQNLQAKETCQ

IC50 (Cytochrome P450 1A1): > 1000 nM | IC50 (Cytochrome P450 1A2): > 1000 nM | IC50 (Cytochrome P450 1B1): 49.4 nM
SMILES: O=c1[nH]c(-c2ccc(OCCF)cc2)nc2ccccc12
selectivity ratio (CYP1A2 versus CYP1B1): > 20.2 | selectivity ratio (CYP1A1 versus CYP1B1): > 20.2
